Assays:
CB2-M293^7.47T&S47^1.46T = CB2-M293^7.47T&S47^1.46T (Homo sapiens, UniProt P34972, M293T/S47T); experiment: GloSensor cAMP assay, CB2 double mutant; assay type: cell-based
CB1^ECL2/CB2^other = experiment: GloSensor cAMP assay, chimeric construct; assay type: cell-based, human; conditions: vs wild-type CB2
CB2^ECL2/CB1^other = experiment: GloSensor cAMP assay, chimeric construct; assay type: cell-based, human; conditions: vs wild-type CB1
CB1 D176^2.63N = CB1 D176^2.63N (Homo sapiens, UniProt P21554, D176N)
Sequence of CB1 D176^2.63N (P21554 whole entry D176N): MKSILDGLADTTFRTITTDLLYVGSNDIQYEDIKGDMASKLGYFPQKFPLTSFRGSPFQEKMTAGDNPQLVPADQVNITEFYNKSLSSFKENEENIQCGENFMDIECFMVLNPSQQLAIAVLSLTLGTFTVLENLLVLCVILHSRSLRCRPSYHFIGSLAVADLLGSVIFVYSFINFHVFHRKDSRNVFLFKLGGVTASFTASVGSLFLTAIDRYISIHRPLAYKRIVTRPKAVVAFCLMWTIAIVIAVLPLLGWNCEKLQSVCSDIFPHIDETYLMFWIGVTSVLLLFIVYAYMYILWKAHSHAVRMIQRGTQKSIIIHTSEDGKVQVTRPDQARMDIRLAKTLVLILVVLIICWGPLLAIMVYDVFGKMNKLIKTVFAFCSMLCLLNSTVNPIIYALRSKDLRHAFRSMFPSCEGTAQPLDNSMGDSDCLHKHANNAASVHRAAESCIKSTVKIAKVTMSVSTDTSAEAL

Sequence of CB2-M293^7.47T&S47^1.46T (P34972 whole entry S47T/M293T): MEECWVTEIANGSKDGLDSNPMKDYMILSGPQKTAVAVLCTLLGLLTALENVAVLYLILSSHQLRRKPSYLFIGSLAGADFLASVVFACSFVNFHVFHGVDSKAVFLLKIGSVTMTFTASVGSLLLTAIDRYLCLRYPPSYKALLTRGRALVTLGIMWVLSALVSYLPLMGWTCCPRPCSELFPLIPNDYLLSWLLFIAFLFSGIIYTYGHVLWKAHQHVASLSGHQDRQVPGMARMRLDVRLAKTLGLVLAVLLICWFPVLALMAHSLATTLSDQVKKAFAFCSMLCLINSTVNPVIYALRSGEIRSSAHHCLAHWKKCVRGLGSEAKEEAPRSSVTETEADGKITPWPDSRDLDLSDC

Q: For `CCCCCCC(C)(C)c1ccc([C@@H]2C[C@H](O)CC[C@H]2CCCO)c(O)c1` [CP55,940], which “activity vs wild-type CB2” value (CB2-M293^7.47T&S47^1.46T) is on record?
A: The value was “remained essentially unchanged”.

Q: And the “effect of ECL2 replacement on EC50” value (CB1^ECL2/CB2^other)?
A: Its value is “no effect on the EC50”.

Q: What about the “activation of CB1 receptor containing the CB2 ECL2 loop” value (CB2^ECL2/CB1^other) of the same compound?
A: The value was “same potency as wild-type CB1”.

Q: What about the “activity vs wild-type CB1” value (CB1 D176^2.63N) of the same compound?
A: Its value is “significantly reduces the activity”.

Source: article PMC11287286 (Proceedings of the National Academy of Sciences of the …, 2024)
